Test results from US7304090B2, “Inhibition of the cystic fibrosis transmembrane conductance regulator chloride channel” (The University of Bristol, priority 2000, dated 2007).
Blank lines part the entries; values can stand above or below the compound they belong to.

What was measured:
wild-type human CFTR = molecular target: T1, wild-type human CFTR (Homo sapiens, UniProt P13569); test: CFTR Cl− channels recorded in excised inside-out membrane patches from C127 cells (patch-clamp); assay type: biochemical
T1 construct: expressed in transfected cells
T1 sequence (P13569 whole entry): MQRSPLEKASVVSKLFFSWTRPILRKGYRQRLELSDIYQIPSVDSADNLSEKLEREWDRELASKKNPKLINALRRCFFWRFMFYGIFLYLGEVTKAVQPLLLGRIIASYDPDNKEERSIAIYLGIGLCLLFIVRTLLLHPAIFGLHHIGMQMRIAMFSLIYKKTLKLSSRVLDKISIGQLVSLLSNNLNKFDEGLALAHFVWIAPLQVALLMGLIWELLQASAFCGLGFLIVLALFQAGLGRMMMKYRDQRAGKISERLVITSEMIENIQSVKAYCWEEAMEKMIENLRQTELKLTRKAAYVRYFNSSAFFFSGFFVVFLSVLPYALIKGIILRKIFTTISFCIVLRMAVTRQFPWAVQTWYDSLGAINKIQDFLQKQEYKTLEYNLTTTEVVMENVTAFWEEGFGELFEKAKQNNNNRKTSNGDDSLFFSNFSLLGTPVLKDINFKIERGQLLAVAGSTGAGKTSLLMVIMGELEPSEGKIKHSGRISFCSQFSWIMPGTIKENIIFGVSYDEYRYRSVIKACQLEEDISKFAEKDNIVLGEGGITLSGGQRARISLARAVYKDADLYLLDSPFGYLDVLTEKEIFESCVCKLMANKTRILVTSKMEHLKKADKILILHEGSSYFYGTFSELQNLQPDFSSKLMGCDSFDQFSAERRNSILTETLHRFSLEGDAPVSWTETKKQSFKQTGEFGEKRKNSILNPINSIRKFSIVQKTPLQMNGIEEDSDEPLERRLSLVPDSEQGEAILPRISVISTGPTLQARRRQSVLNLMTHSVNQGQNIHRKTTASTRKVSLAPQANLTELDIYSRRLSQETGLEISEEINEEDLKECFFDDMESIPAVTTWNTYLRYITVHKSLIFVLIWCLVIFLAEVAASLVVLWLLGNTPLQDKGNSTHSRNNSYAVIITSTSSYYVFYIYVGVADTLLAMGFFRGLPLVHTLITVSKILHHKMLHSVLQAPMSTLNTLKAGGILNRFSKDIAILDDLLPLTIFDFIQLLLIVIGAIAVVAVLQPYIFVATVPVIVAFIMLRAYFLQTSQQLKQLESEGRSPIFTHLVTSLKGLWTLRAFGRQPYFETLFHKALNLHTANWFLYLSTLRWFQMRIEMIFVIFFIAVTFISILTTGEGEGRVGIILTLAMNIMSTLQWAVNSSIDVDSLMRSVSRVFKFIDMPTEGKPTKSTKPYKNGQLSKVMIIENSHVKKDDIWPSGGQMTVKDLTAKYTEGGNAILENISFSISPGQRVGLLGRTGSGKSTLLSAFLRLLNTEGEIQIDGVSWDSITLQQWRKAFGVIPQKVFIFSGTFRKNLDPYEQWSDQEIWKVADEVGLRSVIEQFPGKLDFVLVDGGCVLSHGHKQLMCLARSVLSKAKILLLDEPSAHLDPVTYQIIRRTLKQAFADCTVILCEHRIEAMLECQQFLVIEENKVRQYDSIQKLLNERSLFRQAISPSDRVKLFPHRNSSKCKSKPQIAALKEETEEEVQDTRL
Protocol: For electrophysiological experiments, we used mouse mammary epithelial cells (C127 cells) stably expressing wild-type human CFTR (12). C127 cells expressing wild-type CFTR were cultured as previously described (10). Cells were seeded onto glass coverslips and used within 48 h.
The established sign convention was used throughout; currents produced by positive charge moving from intra- to extracellular solutions (anions moving in the opposite direction) are shown as positive currents.
[…] […] All experiments were conducted at 37° C.
PKA was maintained in the intracellular solution for the duration of experiments. Unless otherwise stated, voltage was −50 mV.
In time course studies, each point is the average current for a 4 s period with data points collected continuously; no data were collected while solutions were changed. Average current (I) for a specific intervention was determined as the average of all the data points collected during the intervention. […] Mean data were fitted to a linear form of equation (1) using linear least-squares regression to yield Ki and n values.
To measure single-channel current amplitude (i), Gaussian distributions were fitted to current amplitude histograms. For open probability (Po) and kinetic analyses, lists of open and closed times were created using a half-amplitude crossing criterion for event detection. Transitions <1 ms in duration were excluded from the analyses. Po was calculated using the equation: Po=(T1+T2+ . . . +TN)/(NTtot), (2) where N is the number of channels; Ttot is the total time analysed, and T1 is the time that one or more channels are open, T2 is the time two or more channels are open and so on. Only membrane patches that contained a single active channel were used for single-channel kinetic analyses.
To investigate whether inhibition of CFTR by fluorescein derivatives was voltage dependent, we used voltage ramp protocols. Macroscopic current-voltage (I-V) relationships were obtained in the absence and presence of fluorescein derivatives by averaging currents generated by 15-30 ramps of voltage each of 2 s duration; holding voltage was −50 mV. Basal currents recorded in the absence of PKA and ATP were subtracted from those recorded in the absence and presence of fluorescein derivatives to determine the effect of these agents on CFTR Cl^− currents.

Type I MDCK cells = test: Proliferation of MDCK cells (cell counting); assay type: cell-based, canine
Protocol: (§1) For cyst growth and cell proliferation experiments, we used Type I Madin-Darby canine kidney (MDCK) cells. We chose Type I MDCK cells because they form cysts when grown in collagen gels in the presence of cAMP agonists (26) and because they express the CFTR Cl^− channel (27). MDCK cells were cultured in MDCK media (a 1:1 mixture of Dulbecco's Modified Eagle Medium (DMEM) and Ham's F-12 nutrient medium supplemented with 100 U ml^−1 penicillin, and 100 μg ml^−1 streptomycin and either 10% fetal bovine serum (FBS; cyst growth) or 5% FBS and 1% insulin-transferrin-selenium-X (ITS-X) supplement (cell proliferation); all from Life Technologies Ltd, Paisley, UK) at 37° C. in a humidified atmosphere of 5% CO2.
To test the effect of CFTR modulators on the proliferation of MDCK cells, we used Type I MDCK cells grown in media containing 5% FBS and 1% ITS-X supplement. On day −1, MDCK cells were seeded at 7.5×10^4 cells ml^−1 in 35 mm dishes containing MDCK media with 1% FBS and 1% ITS-X supplement. On day 0, the concentration of FBS was reduced further to 0.01% and CFTR modulators added to the MDCK media. MDCK media containing CFTR modulators was changed every 2 days for a total period of 6 days. To determine the number of cells per 35 mm dish, Type I MDCK cells were harvested using trypsin (0.25% wt/vol), centrifuged at 1200 rpm for 5 min and resuspended in 1 ml of MDCK media before counting using a haemocytometer.

[1] = test system: Type I Madin-Darby canine kidney (MDCK) cells; test: Cyst growth of MDCK cells in collagen gels with cAMP agonists; assay type: cell-based; conditions: for cyst volume: day 21 vs day 12; for size of cysts (phase-contrast): days 12 to 21
Protocol: as §1
To grow cysts, MDCK cells were cultured in collagen gels using a modification of the method of Grantham et al. (26). Cells were trypsinized with 0.25% (wt/vol) trypsin for 30 minutes at 37° C., diluted with MDCK media containing 10% FBS to form a suspension of between 1-3×10^4 cells ml^−1, and aliquoted into individual wells of a 24-well plate (0.1 ml per well). Each well contained 0.4 ml of ice-cold Vitrogen (3.0 mg ml^−1 collagen; Cohesion Technologies Inc., Palo Alto, USA) supplemented with 10% (vol/vol) 10× minimum essential medium, 10 mM N-[2-hydroxyethyl]piperazine-N′-[2-ethanesulphonic acid] (Hepes), 27 mM NaHCO3, 100 U ml^−1 penicillin, and 100 μg ml^−1 streptomycin, and adjusted to pH 7.4 with NaOH. The 24-well plate was gently agitated to distribute cells throughout the Vitrogen and incubated in a water bath at 37° C. for 90 minutes to promote gelation of the Vitrogen.
After gelation, 1.5 ml MDCK media containing 10% FBS was added to each well of the 24-well plate. To promote cyst growth, we added cAMP agonists (forskolin (10 μM), 3-isobutyl-1-methylxanthine (IBMX; 100 μM), and 8-(4-chlorophenylthio) adenosine 3′:5′-cyclic monophosphate (CPT-cAMP; 500 μM)) to the MDCK media. Plates were maintained at 37° C. in a humidified atmosphere of 5% CO2 and the MDCK media containing cAMP agonists changed every three days.
Twelve days after seeding collagen gels with MDCK cells, cysts were readily detected at ×1000 magnification using an inverted microscope with phase contrast optics (Leica, model DMIL, Milton Keynes, UK). To test the effect of CFTR modulators on cyst growth, drugs were added to MDCK media in the continued presence of cAMP agonists. MDCK media containing cAMP agonists and CFTR modulators was changed every 3 days for a total period of 9 days. Photographs of individual cysts were taken before the addition of CFTR modulators and at three day intervals over the duration of the experiment. To identify individual cysts, each cyst was assigned a unique reference number using a grid placed below the 24-well plate.
The diameter of cysts was measured directly from photographs of cysts using images that had been magnified by identical amounts. By assuming that cysts are spherical in shape, we calculated cyst volume ( 4/3·π·r^3).

SMILES: O=[N+]([O-])c1ccc(C=Cc2ccc([N+](=O)[O-])cc2S(=O)(=O)O)c(S(=O)(=O)O)c1 [DIDS, 4,4′-dinitrostilbene-2,2′-disulphonic acid]
effect on activity of CFTR (wild-type human CFTR; 200 μM, added to the intracellular side): potently inhibited
cell growth (number of cells), day 0 to 6 (Type I MDCK cells; 200 μM): exception
cyst volume ([1]; 200 μM, P>0.5): exception
size of cysts (phase-contrast) ([1]; 200 μM): without effect on cyst growth

SMILES: O=C(O)c1cc([N+](=O)[O-])ccc1NCCCc1ccccc1 [NPPB, 5-nitro-2-(3-phenylpropylamino)-benzoic acid]
inhibition of cell growth in the presence of cAMP agonists (Type I MDCK cells): unaffected by cAMP agonists
rank order of prevention of cell growth (Type I MDCK cells): ouabain (1 μM)=phloxine B (40 μM)=genistein (100 μM)=NPPB (400 μM)>glibenclamide (100 μM)
cell growth (number of cells), day 0 to 6 (Type I MDCK cells; 400 μM): prevented cell growth
rank order of decrease of cyst volume [1]: glibenclamide (100 μM)≧ouabain (1 μM)≧NPPB (400 μM)≧genistein (100 μM)>bumetanide
cyst volume ([1]; 400 μM): decreased cyst volume
size of cysts (phase-contrast) ([1]; 400 μM): visible decrease in the size of cysts

reversibility of CFTR inhibition (wild-type human CFTR): irreversible
stimulation of CFTR channel activity (wild-type human CFTR; concentration-response, FIG. 3): stimulated channel activity
SMILES: O=C1OC2(c3cc(I)c(O)c(I)c3Oc3c2cc(I)c(O)c3I)c2c(Cl)c(Cl)c(Cl)c(Cl)c21 [bengal rose B]
potency of CFTR inhibition compared with glibenclamide (wild-type human CFTR): potency greater than or equal to that of glibenclamide
single-channel activity (i and/or Po) (wild-type human CFTR; 10 μM): never able to resolve discrete channel openings
rank order of potency for CFTR inhibition (wild-type human CFTR; concentration-response, FIG. 3): bengal rose B>phloxine B>eosin Y≧tetrachlorofluorescein>>fluorescein
cell growth (number of cells), day 0 to 6 (Type I MDCK cells; 5 μM): inhibited the proliferation

SMILES: CCCCNc1cc(C(=O)O)cc(S(N)(=O)=O)c1Oc1ccccc1 [bumetanide]
cell growth (number of cells), day 0 to 6 (Type I MDCK cells; 100 μM): exception
rank order of decrease of cyst volume [1]: glibenclamide (100 μM)≧ouabain (1 μM)≧NPPB (400 μM)≧genistein (100 μM)>bumetanide
cyst volume ([1]; 100 μM): decreased cyst volume

SMILES: O=C1OC2(c3ccc(O)cc3Oc3cc(O)ccc32)c2ccccc21 [fluorescein]
rank order of potency for CFTR inhibition (wild-type human CFTR; concentration-response, FIG. 3): bengal rose B>phloxine B>eosin Y≧tetrachlorofluorescein>>fluorescein

SMILES: O=c1c(-c2ccc(O)cc2)coc2cc(O)cc(O)c12 [genistein]
inhibition of cell growth in the presence of cAMP agonists (Type I MDCK cells): unaffected by cAMP agonists
rank order of prevention of cell growth (Type I MDCK cells): ouabain (1 μM)=phloxine B (40 μM)=genistein (100 μM)=NPPB (400 μM)>glibenclamide (100 μM)
cell growth (number of cells), day 0 to 6 (Type I MDCK cells; 100 μM): prevented cell growth
rank order of decrease of cyst volume [1]: glibenclamide (100 μM)≧ouabain (1 μM)≧NPPB (400 μM)≧genistein (100 μM)>bumetanide
cyst volume ([1]; 100 μM): decreased cyst volume

effect on channel block by phloxine B (20 μM) (wild-type human CFTR; glibenclamide 50 μM): potentiated channel block
SMILES: COc1ccc(Cl)cc1C(=O)NCCc1ccc(S(=O)(=O)NC(=O)NC2CCCCC2)cc1 [glibenclamide]
inhibition of cell growth in the presence of cAMP agonists (Type I MDCK cells): unaffected by cAMP agonists
rank order of prevention of cell growth (Type I MDCK cells): ouabain (1 μM)=phloxine B (40 μM)=genistein (100 μM)=NPPB (400 μM)>glibenclamide (100 μM)
cell growth (number of cells), day 0 to 6 (Type I MDCK cells; 100 μM): prevented cell growth
rank order of decrease of cyst volume [1]: glibenclamide (100 μM)≧ouabain (1 μM)≧NPPB (400 μM)≧genistein (100 μM)>bumetanide
cyst volume ([1]; 100 μM): decreased cyst volume
size of cysts (phase-contrast) ([1]; 100 μM): visible decrease in the size of cysts

potency of CFTR inhibition compared with glibenclamide (wild-type human CFTR): less potently than glibenclamide
reversibility of CFTR inhibition (wild-type human CFTR): partially reversible
open probability (Po) (wild-type human CFTR; 100 μM): decreasing
single-channel current amplitude (i) (wild-type human CFTR; 100 μM): decreasing
channel block at positive voltages (wild-type human CFTR; 100 μM, symmetrical 147 mM Cl−): relieved
effect on CFTR Cl− currents at negative voltages (wild-type human CFTR; 100 μM, symmetrical 147 mM Cl−): decreased CFTR Cl^− currents
n (slope factor, Hill coefficient) of CFTR inhibition (wild-type human CFTR; ATP 0.3 mM, PKA 75 nM, −50 mV): 0.7
Ki (wild-type human CFTR; ATP 0.3 mM, PKA 75 nM, −50 mV, 37° C., drug in intracellular solution, read-out: Ki (drug concentration causing half-maximal inhibition of CFTR Cl− current, Hill plot)): 58 µM
voltage-dependence of CFTR inhibition (wild-type human CFTR; voltage ramp ±100 mV, symmetrical 147 mM Cl−, ATP 1 mM): voltage-dependent
SMILES: O=C(O)c1c(Cl)c(Cl)c(Cl)c(Cl)c1-c1c2ccc(=O)cc-2oc2cc(O)ccc12 [tetrachlorofluorescein]
rank order of potency for CFTR inhibition (wild-type human CFTR; concentration-response, FIG. 3): bengal rose B>phloxine B>eosin Y≧tetrachlorofluorescein>>fluorescein
cell growth (number of cells), day 0 to 6 (Type I MDCK cells; 200 μM): inhibited the proliferation
